Key:
[1] = target: T1, human β1-adrenergic receptor (Homo sapiens, UniProt P08588); assay: Test Case 2-C: human β1-adrenergic receptor agonist activity (Cerep cellular functional GPCR, beta 1); assay type: cell-based; details: concentration 10 μM, isoproterenol = 100%
T1 construct: expressed in transfected cells; host or cells: CHO (Chinese hamster ovary) cells, pcDNA3
Source text: (§1) Measurement of Human β1-Adrenergic Receptor Agonist Activity

[2] = target: T2, human β2-adrenergic receptor (Homo sapiens, UniProt P07550); assay: Test Case 3-C: human β2-adrenergic receptor agonist activity (Cerep cellular functional GPCR, beta 2); assay type: cell-based; details: concentration 10 μM, isoproterenol = 100%
T2 construct: expressed in transfected cells; host or cells: CHO (Chinese hamster ovary) cells, pcDNA3
Source text: (§2) Measurement of Human β2-Adrenergic Receptor Agonist Activity

[3] = target: T3, human α1A-adrenergic receptor (Homo sapiens, UniProt P35348); assay: Test Case 4-B: human α1A-adrenergic receptor agonist activity (Cerep cellular functional GPCR, alpha 1A); assay type: cell-based; design: expressed in transfected cells; details: concentration 10 μM; for α1 receptor % of Control Agonist Response, Control; Epinephrine: epinephrine = 100%; for α1 receptor % of Control Agonist Response, Control; Norepinephrine: norepinephrine = 100%
T3 sequence (P35348 1-466): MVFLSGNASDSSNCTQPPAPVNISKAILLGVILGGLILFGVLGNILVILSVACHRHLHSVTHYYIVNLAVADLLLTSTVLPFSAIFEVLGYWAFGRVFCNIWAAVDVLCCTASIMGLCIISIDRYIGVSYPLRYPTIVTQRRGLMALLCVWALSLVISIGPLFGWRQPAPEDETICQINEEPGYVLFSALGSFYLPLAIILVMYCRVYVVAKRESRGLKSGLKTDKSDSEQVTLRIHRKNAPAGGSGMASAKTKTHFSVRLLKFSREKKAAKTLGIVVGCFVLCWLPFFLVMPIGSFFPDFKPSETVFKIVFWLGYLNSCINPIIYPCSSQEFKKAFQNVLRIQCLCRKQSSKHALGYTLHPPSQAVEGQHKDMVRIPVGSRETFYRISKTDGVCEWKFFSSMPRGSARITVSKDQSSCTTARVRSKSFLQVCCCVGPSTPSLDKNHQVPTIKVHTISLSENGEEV
Source text: Measurement of Human α1A-Adrenergic Receptor Agonist Activity
The human α1A-adrenergic receptor agonist activity] can be measured by […] Functional GPCR·Gs, alpha 1A (Ref. 722-36a) listed on p. 52 of the Cerep 2008 CATALOG IN VITRO PHARMACOLOGY & ADME-TOX.

[4] = target: T4, human β3-adrenergic receptor (Homo sapiens, UniProt P13945); assay: Test Case 1-B: human β3-adrenergic receptor agonist activity (cAMP-Screen, 96-well); assay type: cell-based; details: for Emax: 0.5 h, read-out: β3 receptor I.A.; for EC50: CHO cells, cAMP
T4 construct: A full-length human β3 gene is obtained from a human genomic library (made by Clontech) using this as the probe; expressed in transfected cells; host or cells: CHO (Chinese hamster ovary) cells, pcDNA3
Summary of the method: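 CHO cells stably transfected with full-length human β3 gene, serum-starved 15 min, then exposed to serially diluted compound in Ham's F-12 with 100 mmol/L HEPES and 1 mmol/L IBMX (diluent concentrations) for 30 min. Cells lysed 30 min at 37 °C; cAMP quantified by cAMP-Screen immunoassay.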

[5] = target: T1, human β1-adrenergic receptor; assay: Test Case 2-B: human β1-adrenergic receptor agonist activity; assay type: cell-based; details: for Emax: read-out: β1 receptor I.A.
Method: as §1
The human β1-adrenergic receptor agonist activity is measured by the same method as in Test Case 1-B using CHO (Chinese hamster ovary) cells transfected by a human β1 gene inserted in pcDNA3 (Invitrogen).

[6] = target: T2, human β2-adrenergic receptor; assay: Test Case 3-B: human β2-adrenergic receptor agonist activity; assay type: cell-based; details: for Emax: read-out: β2 receptor I.A.
Method: as §2
The human β2-adrenergic receptor agonist activity is measured by the same method as in Test Case 1-B using CHO (Chinese hamster ovary) cells transfected by a human β2 gene inserted in pcDNA3 (Invitrogen).

Male C57BL/6 Cr mice = assay: Test Case 10: mouse piloerection test; assay type: in vivo; details: 10 mg/kg i.v.
Method: Male C57BL/6 Cr mice (Japan SLC) are used. The dissolved compound is administered rapidly via a caudal vein. The animal is placed on the observation stand 5, 15, 30, and 60 minutes after administration, and the state of piloerection is observed. The state of piloerection is evaluated by the following 7-level scoring system according to the examples by the method of Irwin (Psychopharmacologia 1968, 13; 222-257).
Scoring system: “Score 0”: No piloerection at all; “Score 1”: Slight piloerection (piloerection on part of the body such as the back or neck); “Score 2”: Moderate piloerection (piloerection over the entire body); “Score 3”: Marked piloerection (piloerection over the entire body, conspicuous to the extent that the skin can be seen).
“Score 0.5” is between “Score 0” and “Score 1” “Score 1.5” is between […]. “Score 2.5” is between “Score 2” and “Score 3.”

[7] = target: T3, human α1A-adrenergic receptor; assay: Test Case 4-A: human α1A-adrenergic receptor agonist activity (HEK293, Ca flux, Fura-2); assay type: cell-based; design: expressed in transfected cells; host or cells: HEK293 cells, pcDNA3.1; details: for Emax: HEK293, read-out: α1A receptor I.A.
Summary of the method: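 Fura-2AM-loaded HEK293 cells transfected with human α1A were preincubated for 180 s. Compound (sample plate 10^−5 to 10^−12 M) was added after ~30 s of 340/380 nm excitation ratio reading (500 nm emission, 2-s intervals), followed by 270 s more reading. Ca flux is the peak height: maximum ratio after addition minus the pre-addition ratio.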

T2 sequence (P07550 whole entry): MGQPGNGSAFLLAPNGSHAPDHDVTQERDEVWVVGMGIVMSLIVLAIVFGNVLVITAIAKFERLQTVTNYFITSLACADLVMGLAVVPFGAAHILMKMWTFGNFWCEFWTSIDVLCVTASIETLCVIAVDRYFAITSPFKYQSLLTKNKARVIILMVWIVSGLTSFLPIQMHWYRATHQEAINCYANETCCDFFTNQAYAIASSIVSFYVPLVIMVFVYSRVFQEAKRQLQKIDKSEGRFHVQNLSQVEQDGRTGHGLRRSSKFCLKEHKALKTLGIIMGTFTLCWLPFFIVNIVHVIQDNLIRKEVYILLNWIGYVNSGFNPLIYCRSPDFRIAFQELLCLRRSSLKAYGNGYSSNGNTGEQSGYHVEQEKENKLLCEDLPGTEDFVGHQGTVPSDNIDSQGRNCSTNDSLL
T1 sequence (P08588 whole entry): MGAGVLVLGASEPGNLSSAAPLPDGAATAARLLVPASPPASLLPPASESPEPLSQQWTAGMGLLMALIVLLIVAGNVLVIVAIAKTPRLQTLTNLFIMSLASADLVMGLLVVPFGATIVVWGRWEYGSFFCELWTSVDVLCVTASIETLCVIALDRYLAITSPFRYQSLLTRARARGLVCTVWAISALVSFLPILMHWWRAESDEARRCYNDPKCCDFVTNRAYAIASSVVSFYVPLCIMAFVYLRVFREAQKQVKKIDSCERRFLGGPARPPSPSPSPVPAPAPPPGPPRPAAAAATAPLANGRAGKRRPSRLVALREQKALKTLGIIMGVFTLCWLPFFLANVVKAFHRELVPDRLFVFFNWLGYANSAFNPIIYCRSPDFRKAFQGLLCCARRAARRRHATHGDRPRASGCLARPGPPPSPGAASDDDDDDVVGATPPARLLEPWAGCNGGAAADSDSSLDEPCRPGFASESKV
T4 sequence (P13945 whole entry): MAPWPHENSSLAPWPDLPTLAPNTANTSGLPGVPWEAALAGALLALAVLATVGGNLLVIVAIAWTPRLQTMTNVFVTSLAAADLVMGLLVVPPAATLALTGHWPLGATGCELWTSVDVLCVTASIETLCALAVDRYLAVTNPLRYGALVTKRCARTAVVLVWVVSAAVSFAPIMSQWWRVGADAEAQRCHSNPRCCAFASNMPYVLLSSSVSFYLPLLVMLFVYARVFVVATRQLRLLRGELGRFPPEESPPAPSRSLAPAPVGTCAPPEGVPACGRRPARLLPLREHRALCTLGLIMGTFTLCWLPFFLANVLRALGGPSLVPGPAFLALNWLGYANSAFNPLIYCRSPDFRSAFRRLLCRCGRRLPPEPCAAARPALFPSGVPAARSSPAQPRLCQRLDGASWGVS

Row | SMILES | Emax [4] | EC50 ([4]; Test Case 1-B) | Emax [5] | Emax [6] | Emax [7] | further results
1 | O=S(=O)(Nc1cccc([C@@H](O)CNCCOc2ccc3c(Cl)n[nH]c3c2)c1)c1ccsc1 [ex157, (R)-N-(3-(2-(2-(3-chloroindazol-6-yloxy)ethylamino)-1-hydroxyethyl)phenyl)thiophene-3-sulfonamide] |  |  |  |  |  | β1 receptor % of Control Agonist Response [1]: 7.0%; β2 receptor % of Control Agonist Response [2]: 3.2%; α1 receptor % of Control Agonist Response, Control; Epinephrine [3]: 8.1%; α1 receptor % of Control Agonist Response, Control; Norepinephrine [3]: 7.0%
2 | O=S(=O)(Nc1cccc([C@@H](O)CNCCOc2ccc3c(C(F)(F)F)n[nH]c3c2)c1)c1cn[nH]c1 [ex198, (R)-N-(3-(1-hydroxy-2-(2-(3-(trifluoromethyl)-indazol-6-yloxy)ethylamino)ethyl)phenyl)-pyrazole-4-sulfonamide] |  |  |  |  |  | β1 receptor % of Control Agonist Response [1]: 3.5%; β2 receptor % of Control Agonist Response [2]: −0.5%; α1 receptor % of Control Agonist Response, Control; Epinephrine [3]: 19%; α1 receptor % of Control Agonist Response, Control; Norepinephrine [3]: 17%
3 | CCc1n[nH]c2cc(OCCNC[C@H](O)c3cccc(NS(=O)(=O)C4CC4)c3)ccc12 [ex124, (R)-N-(3-(2-(2-(3-ethylindazol-6-yloxy)ethylamino)-1-hydroxyethyl)phenyl)-cyclopropanesul-fonamide] | 52% | 0.013 µM | -6% | -1% | 0% | number of experimental animals matching Score 0 (no piloerection) (Male C57BL/6 Cr mice; n=4, observation time 5 min): 2; number of experimental animals matching Score 0.5 (Male C57BL/6 Cr mice; n=4, observation time 5 min): 1; number of experimental animals matching Score 1 (slight piloerection) (Male C57BL/6 Cr mice; n=4, observation time 5 min): 1; number of experimental animals matching Score 0.5 (Male C57BL/6 Cr mice; n=4, observation time 15 min): 3; number of experimental animals matching Score 1 (slight piloerection) (Male C57BL/6 Cr mice; n=4, observation time 15 min): 1; number of experimental animals matching Score 0 (no piloerection) (Male C57BL/6 Cr mice; n=4, observation time 30 min): 2; number of experimental animals matching Score 0.5 (Male C57BL/6 Cr mice; n=4, observation time 30 min): 2; number of experimental animals matching Score 0 (no piloerection) (Male C57BL/6 Cr mice; n=4, observation time 60 min): 2; number of experimental animals matching Score 0.5 (Male C57BL/6 Cr mice; n=4, observation time 60 min): 2
4 | COc1n[nH]c2cc(OCCNC[C@H](O)c3cccc(NS(=O)(=O)c4cccc(Cl)c4)c3)ccc12 [ex13, (R)-3-chloro-N-(3-(1-hydroxy-2-(2-( ? - methoxyindazol-6-yloxy)ethylamino)ethyl)phenyl) benzenesulfonamide] | 82% | 0.0094 µM | 4% | -4% | 0% | 
5 | Cc1n[nH]c2cc(OCCNC[C@H](O)c3cccc(NS(=O)(=O)c4ccccc4O)c3)ccc12 [ex241, (R)-2-hydroxy-N-(3-(1-hydroxy-2-(2-(3-methylindazol-6-yloxy)ethylamino)ethyl)phenyl)benzenesulfonamide] | 94% | 0.043 µM | 9% | 8% | 0% | 
6 | O=S(=O)(Nc1cccc([C@@H](O)CNCCOc2ccc3c(Cl)n[nH]c3c2)c1)C1CC1 [ex152] | 104% | 0.022 µM | 3% | 15% | 8% | 
7 | COc1cccc(S(=O)(=O)Nc2cccc([C@@H](O)CNCCOc3ccc4c(OC)n[nH]c4c3)c2)c1 [ex43, (R)-N-(3-(1-hydroxy-2-(2-(3-methoxyindazol-6-yloxy)ethylamino)ethyl)phenyl)-3-methoxybenzene-sulfonamide] |  | 0.015 µM |  |  |  | β3 receptor I.A. ([4]; Test Case 1-B, maximum response of isoproterenol = 100%): 65%; β1 receptor I.A. ([5]; Test Case 2-B, maximum response of isoproterenol = 100%): −2%; β2 receptor I.A. ([6]; Test Case 3-B, maximum response of isoproterenol = 100%): −5%; α1A receptor I.A. ([7]; Test Case 4-A, maximum response of norepinephrine = 100%, Table 4): 0%
8 | CNc1cccc(S(=O)(=O)Nc2cccc([C@@H](O)CNCCOc3ccc4c(C)n[nH]c4c3)c2)c1 [ex239, (R)—N-(3-(1-hydroxy-2-(2-(3-methylindazol-6-yloxy)ethylamino)ethyl)phenyl)-3-(methylamino)benzenesulfonamide] | 108% | 0.016 µM | 15% | 2% | 0% | 
9 | COc1n[nH]c2cc(OCCNC[C@H](O)c3cccc(NS(=O)(=O)c4cc(N)ccc4F)c3)ccc12 [ex6, (R)-5-amino-2-fluoro-N-(3-(1-hydroxy-2-(2-(3-methoxyindazol-6-yloxy)ethylamino)ethyl)phenyl)benzenesulfonamide] | 84% | 0.0007 µM | 10% | 7% | 0% | number of experimental animals matching Score 0 (no piloerection) (Male C57BL/6 Cr mice; n=4, observation time 5 min): 4; number of experimental animals matching Score 0 (no piloerection) (Male C57BL/6 Cr mice; n=4, observation time 15 min): 4; number of experimental animals matching Score 0 (no piloerection) (Male C57BL/6 Cr mice; n=4, observation time 30 min): 4; number of experimental animals matching Score 0 (no piloerection) (Male C57BL/6 Cr mice; n=4, observation time 60 min): 4
10 | Cc1n[nH]c2cc(OCCNC[C@H](O)c3cccc(NS(=O)(=O)c4cccc(O)c4)c3)ccc12 [ex236, (R)-3-hydroxy-N-(3-(1-hydroxy-2-(2-(3-methylindazol-6-yloxy)ethylamino)ethyl)phenyl)benzenesulfonamide] | 58% | 0.001 µM | 11% | 5% | 0% | 
11 | COc1n[nH]c2cc(OCCNC[C@H](O)c3cccc(NS(=O)(=O)c4cccnc4)c3)ccc12 [ex12, (R)-N-(3-(1-hydroxy-2-(2-(3-methoxyindazol-6-yloxy)ethylamino)ethyl)phenyl)pyridine-3-sulfonamide] | 52% | 0.031 µM | 5% | 5% | 0% | 
12 | O=S(=O)(Nc1cccc([C@@H](O)CNCCOc2ccc3c(C(F)(F)F)n[nH]c3c2)c1)C1CC1 [ex181, (R)-N-(3-(1-hydroxy-2-(2-(3-(trifluoromethyl)indazol-6-yloxy)ethylamino)ethyl)phenyl) cyclopropane-sulfonamide] | 80% | 0.016 µM | 1% | 8% | 4% | 
13 | CCc1n[nH]c2cc(OCCNC[C@H](O)c3cccc(NS(=O)(=O)c4cccc(C)c4)c3)ccc12 [ex126, (R)-N-(3-(2-(2-(3-ethylindazol-6-yloxy)ethylamino)-1-hydroxyethyl)phenyl)-3-methylbenzene-sulfonamide] | 85% | 0.014 µM | 8% | 1% | 0% | 

Reference: patent US20120225909A1, “INDAZOLE ANALOG” (priority 2009, published 2012)
